Here are results for four compounds from patent publication US20210093531A1, “DERIVATIVES OF MENTHOL AND USES THEREOF” (Board of Trustees of Northern Illinois University, priority 2019, published 2021).

Marks after values point to notes of the source that are not given here.

One test deals with trained panelists. As to the kind of experiment: time-intensity analysis of cooling, beverage model system. The format is in vivo. As to conditions: 100 ppm, 2-minute window. On the procedure: In order to evaluate the potential use of menthol glycinates as […] different food, beverage and oral hygiene products, select compounds were incorporated in different application systems. A beverage model system, a lozenge and a mouthwash application were created, and time-intensity analysis was performed using trained discrimination analysis panelists. Time-Intensity (TI) is a temporal sensory method. During TI evaluations, assessors are asked to score the intensity of perception of a single attribute over consumption of the product. Compared to single point measurements, TI analysis can characterize the onset, decline and rates thereof, of particular sensory characteristics. This analysis may reveal rich information regarding the intensity of an attribute over the time domain and identify temporal perceptual differences among samples that can greatly impact the overall profile of a product. For each sample evaluation, a temporal curve is generated, based on duplication. The temporal curves for each panelist are combined to generate a combined curve for each product that is evaluated. The following distinct parameters were calculated: Imax: peak intensity or maximum observed intensity on the whole curve; […]: time point where the reaction to the stimulus is first perceived on the curve; Tmax: time position of the peak intensity on the curve; Tplateau: protraction of maximum intensity or duration of maximum intensity; Text: time point of extinction of the perception of the stimulus, defined as the position in time after the peak intensity where the measured intensity disappears (or the end of evaluation window); Iext: intensity at time of extinction or end of evaluation; R increase: slope or rate of intensity increase between […] and Tmax; R decrease: slope or rate of intensity decrease between Tmax and Text; and Area: the total area under the time-intensity curve. The formula detailed in Table 6 was employed to create a simple beverage model system to evaluate menthol glycinates of interest using time-intensity analysis. [table] For time-intensity (T-I) evaluation of the cooling attribute of the model beverage system 8 panelists were recruited (2 male, 6 female). Panelists were trained in basic taste descriptive analysis. A sweetness reference series (intensity range 2-12) was provided to be used as cross-modality reference to aid in scaling the intensity of the cool attribute present in the model beverage samples. Panelists evaluated samples in duplicates and all sample were presented blinded and in a randomized order using a 3-digit code. Panelists were instructed to hold the sample in their mouths for 30 seconds and then expectorate. During the hold period panelists were instructed to note cooling onset and intensity. After expectorating, the panelists continued to report cooling intensity at predetermined time points throughout an evaluation window of 2 minutes. Samples were presented pre-weighted, and panelists were instructed to evaluate the entire amount of sample to ensure uniformity among panelists and replicate evaluations. Evaluations were performed with at least 4 hours between them to ensure no carry over. Data analysis for generation of T-I statistics and ANOVA analysis to determine significant difference among samples was performed using R STUDIO.

For test [1] the following is noted: taste dilution tests; cited from earlier work.

On to `CC1CCC(C(C)C)C(O)C1` (stereo not shown) [Menthol, menthol], for which the “Imax (peak cooling intensity)” value with trained panelists (2% propylene glycol in water) is 5^a. In the test on trained panelists, the AUC is listed as 429.1^a, the Rdec is 0.03^a, the Rinc is on record as 0.12^a and the “Tplateau (duration of maximum intensity)” value is reported as 23.3^a. In addition, in the test on trained panelists, the Tstart is listed as 10^a. In test [1], the cooling threshold is 0.8 ppm.

In the case of `CCCCN(CCCC)CC(=O)O[C@@H]1C[C@H](C)CC[C@H]1C(C)C` [Product 10, (1R,2S,5R)-2-Isopropyl-5-methylcyclohexyl 2-(dibutylamino)acetate], in the test with trained panelists, the Rdec was 0.06^a, the Rinc is reported as 0.04^b and the Tstart was 6.1^b.

Consider `CC(C)[C@@H]1CC[C@@H](C)C[C@H]1OC(=O)CN(C)C(C)C` [Product 16, (1R,2S,5R)-2-Isopropyl-5-methylcyclohexyl 2-(isopropyl(methyl)amino)acetate], for which, in the test on trained panelists, the Rdec was 0.02^a, the Rinc is on record as 0.05^b and the Tstart is on record as 16^c.

In the case of “(1R,2S,5R)-2-Isopropyl-5-methylcyclohexyl 2-(isopropylamino)acetate [Product 7]”, in the test on trained panelists, the Rdec is listed as 0.02^a, the Rinc is recorded as 0.06^b and the Tstart is 16^c.
